# Laboratory results: the kinase profiling compilation of Christmann-Franck et al. (2016)
# Where “and” joins values, the source holds several entries; their conditions need not be identical. Identical values can stand only once.
# Tests used:
# Assay in all cases: radiometric filter-binding kinase assay, Kinase HotSpot
# Conditions in all cases: compound 0.5 µM; ATP 10 µM
# NEK6 (human) = NEK6 (human) (UniProt Q9HC98)
# PIM1 (human) = PIM1 (human) (UniProt P11309)
# PRKACA (human) = PRKACA (human) (UniProt P17612)
# LYN (human) = LYN (human) (UniProt P07948)
# PIM3 (human) = PIM3 (human) (UniProt Q86V86)
# FGFR4 (human) = FGFR4 (human) (UniProt P22455)
# DSTYK (human) = DSTYK (human) (UniProt Q6XUX3)
# EPHA1 (human) = EPHA1 (human) (UniProt P21709)
# PTK2B (human) = PTK2B (human) (UniProt Q14289)
# BLK (human) = BLK (human) (UniProt P51451)
# MAP2K1 (human) = MAP2K1 (human) (UniProt Q02750)
# MAPK9 (human) = MAPK9 (human) (UniProt P45984)
# CDK5 CDK5R1 p25 (human) = CDK5 CDK5R1 p25 (human) (UniProt Q00535+Q15078)
# HIPK1 (human) = HIPK1 (human) (UniProt Q86Z02)
# EPHB3 (human) = EPHB3 (human) (UniProt P54753)
# ACVRL1 (human) = ACVRL1 (human) (UniProt P37023)
# DCLK2 (human) = DCLK2 (human) (UniProt Q8N568)
# ALK (human) = ALK (human) (UniProt Q9UM73)
# RAF1 (human) = RAF1 (human) (UniProt P04049)
# SGK2 (human) = SGK2 (human) (UniProt Q9HBY8)
# MARK4 (human) = MARK4 (human) (UniProt Q96L34)
# PHKG1 (human) = PHKG1 (human) (UniProt Q16816)
# MAP2K2 (human) = MAP2K2 (human) (UniProt P36507)
# OXSR1 (human) = OXSR1 (human) (UniProt O95747)
# TAOK1 (human) = TAOK1 (human) (UniProt Q7L7X3)
# EPHA7 (human) = EPHA7 (human) (UniProt Q15375)
# CDK1 CCNB1 (human) = CDK1 CCNB1 (human) (UniProt P06493+P14635)
# PLK1 (human) = PLK1 (human) (UniProt P53350)
# EPHB4 (human) = EPHB4 (human) (UniProt P54760)
# CAMKK2 (human) = CAMKK2 (human) (UniProt Q96RR4)
# MAPK1 (human) = MAPK1 (human) (UniProt P28482)
# GRK4 (human) = GRK4 (human) (UniProt P32298)
# CSF1R (human) = CSF1R (human) (UniProt P07333)
# MAP3K2 (human) = MAP3K2 (human) (UniProt Q9Y2U5)
# BRSK1 (human) = BRSK1 (human) (UniProt Q8TDC3)
# MAP3K14 (human) = MAP3K14 (human) (UniProt Q99558)
# ITK (human) = ITK (human) (UniProt Q08881)
# CAMKK1 (human) = CAMKK1 (human) (UniProt Q8N5S9)
# AKT1 (human) = AKT1 (human) (UniProt P31749)
# MINK1 (human) = MINK1 (human) (UniProt Q8N4C8)
# MAP3K11 (human) = MAP3K11 (human) (UniProt Q16584)
# SIK2 (human) = SIK2 (human) (UniProt Q9H0K1)
# Chain of MARK4 (human) (Q96L34 whole entry, looked up): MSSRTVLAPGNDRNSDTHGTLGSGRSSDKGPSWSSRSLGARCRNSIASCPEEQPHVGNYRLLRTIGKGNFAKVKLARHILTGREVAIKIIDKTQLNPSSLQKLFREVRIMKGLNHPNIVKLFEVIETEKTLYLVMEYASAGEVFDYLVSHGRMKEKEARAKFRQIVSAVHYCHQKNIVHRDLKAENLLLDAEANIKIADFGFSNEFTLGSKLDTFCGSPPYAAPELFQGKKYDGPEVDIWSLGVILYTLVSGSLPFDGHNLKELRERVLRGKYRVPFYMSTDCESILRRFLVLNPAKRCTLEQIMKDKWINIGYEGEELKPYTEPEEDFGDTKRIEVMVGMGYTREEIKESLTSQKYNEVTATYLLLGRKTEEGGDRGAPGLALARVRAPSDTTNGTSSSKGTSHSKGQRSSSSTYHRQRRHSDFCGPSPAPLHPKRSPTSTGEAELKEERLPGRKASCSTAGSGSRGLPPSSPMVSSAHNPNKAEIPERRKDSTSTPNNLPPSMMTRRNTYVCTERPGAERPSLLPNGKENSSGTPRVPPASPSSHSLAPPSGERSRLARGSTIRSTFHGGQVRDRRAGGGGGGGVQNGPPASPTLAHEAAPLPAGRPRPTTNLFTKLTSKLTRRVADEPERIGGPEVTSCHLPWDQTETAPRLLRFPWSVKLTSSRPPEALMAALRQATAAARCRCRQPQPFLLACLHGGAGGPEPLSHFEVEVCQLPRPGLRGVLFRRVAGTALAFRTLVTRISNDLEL
# Chain of MAP3K14 (human) (Q99558 whole entry, looked up): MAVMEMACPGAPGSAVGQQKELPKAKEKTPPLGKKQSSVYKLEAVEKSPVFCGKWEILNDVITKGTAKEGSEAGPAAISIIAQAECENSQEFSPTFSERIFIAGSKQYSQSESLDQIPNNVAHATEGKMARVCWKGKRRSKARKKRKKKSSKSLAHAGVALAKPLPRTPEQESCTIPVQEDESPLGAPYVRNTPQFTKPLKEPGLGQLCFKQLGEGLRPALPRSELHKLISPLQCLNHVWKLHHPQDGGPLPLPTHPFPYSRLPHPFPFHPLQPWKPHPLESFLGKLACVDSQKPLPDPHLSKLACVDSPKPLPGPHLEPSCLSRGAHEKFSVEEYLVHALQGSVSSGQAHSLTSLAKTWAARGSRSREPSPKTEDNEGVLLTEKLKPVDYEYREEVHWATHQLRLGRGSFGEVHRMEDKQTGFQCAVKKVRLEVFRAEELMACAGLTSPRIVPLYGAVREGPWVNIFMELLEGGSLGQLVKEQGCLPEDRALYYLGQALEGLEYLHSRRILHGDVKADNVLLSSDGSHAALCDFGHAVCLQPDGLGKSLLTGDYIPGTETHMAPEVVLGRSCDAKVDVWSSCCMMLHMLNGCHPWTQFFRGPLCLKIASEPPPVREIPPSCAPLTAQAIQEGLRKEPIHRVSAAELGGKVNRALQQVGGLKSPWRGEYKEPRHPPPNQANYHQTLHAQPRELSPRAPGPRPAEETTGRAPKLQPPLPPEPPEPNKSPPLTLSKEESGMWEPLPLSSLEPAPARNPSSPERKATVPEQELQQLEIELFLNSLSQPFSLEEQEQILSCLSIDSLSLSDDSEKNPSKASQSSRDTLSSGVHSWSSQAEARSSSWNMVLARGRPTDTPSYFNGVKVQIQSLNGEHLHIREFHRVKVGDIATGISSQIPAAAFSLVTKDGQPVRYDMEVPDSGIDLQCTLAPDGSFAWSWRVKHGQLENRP
# Chain of DCLK2 (human) (Q8N568 whole entry, looked up): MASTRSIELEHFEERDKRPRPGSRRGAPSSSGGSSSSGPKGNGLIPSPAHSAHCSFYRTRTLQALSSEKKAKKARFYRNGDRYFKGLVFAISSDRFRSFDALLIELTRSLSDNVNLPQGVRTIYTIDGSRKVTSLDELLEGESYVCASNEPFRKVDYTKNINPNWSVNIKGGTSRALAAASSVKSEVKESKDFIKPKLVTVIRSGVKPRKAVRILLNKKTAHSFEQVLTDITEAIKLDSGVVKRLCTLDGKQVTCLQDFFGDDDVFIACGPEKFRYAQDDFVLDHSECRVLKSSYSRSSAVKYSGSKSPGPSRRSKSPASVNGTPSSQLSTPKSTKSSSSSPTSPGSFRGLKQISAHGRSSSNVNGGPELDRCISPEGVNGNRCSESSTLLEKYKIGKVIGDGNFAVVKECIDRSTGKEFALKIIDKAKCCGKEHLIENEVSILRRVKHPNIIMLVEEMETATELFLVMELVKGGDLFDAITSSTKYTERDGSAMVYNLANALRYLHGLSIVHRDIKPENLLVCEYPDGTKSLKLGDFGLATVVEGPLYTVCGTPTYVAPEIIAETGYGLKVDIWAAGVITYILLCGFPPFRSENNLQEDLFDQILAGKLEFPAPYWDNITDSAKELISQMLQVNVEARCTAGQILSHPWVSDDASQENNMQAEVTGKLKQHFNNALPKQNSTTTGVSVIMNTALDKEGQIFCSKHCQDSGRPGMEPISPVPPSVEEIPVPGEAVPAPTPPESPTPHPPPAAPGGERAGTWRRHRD
# Chain of TAOK1 (human) (Q7L7X3 whole entry, looked up): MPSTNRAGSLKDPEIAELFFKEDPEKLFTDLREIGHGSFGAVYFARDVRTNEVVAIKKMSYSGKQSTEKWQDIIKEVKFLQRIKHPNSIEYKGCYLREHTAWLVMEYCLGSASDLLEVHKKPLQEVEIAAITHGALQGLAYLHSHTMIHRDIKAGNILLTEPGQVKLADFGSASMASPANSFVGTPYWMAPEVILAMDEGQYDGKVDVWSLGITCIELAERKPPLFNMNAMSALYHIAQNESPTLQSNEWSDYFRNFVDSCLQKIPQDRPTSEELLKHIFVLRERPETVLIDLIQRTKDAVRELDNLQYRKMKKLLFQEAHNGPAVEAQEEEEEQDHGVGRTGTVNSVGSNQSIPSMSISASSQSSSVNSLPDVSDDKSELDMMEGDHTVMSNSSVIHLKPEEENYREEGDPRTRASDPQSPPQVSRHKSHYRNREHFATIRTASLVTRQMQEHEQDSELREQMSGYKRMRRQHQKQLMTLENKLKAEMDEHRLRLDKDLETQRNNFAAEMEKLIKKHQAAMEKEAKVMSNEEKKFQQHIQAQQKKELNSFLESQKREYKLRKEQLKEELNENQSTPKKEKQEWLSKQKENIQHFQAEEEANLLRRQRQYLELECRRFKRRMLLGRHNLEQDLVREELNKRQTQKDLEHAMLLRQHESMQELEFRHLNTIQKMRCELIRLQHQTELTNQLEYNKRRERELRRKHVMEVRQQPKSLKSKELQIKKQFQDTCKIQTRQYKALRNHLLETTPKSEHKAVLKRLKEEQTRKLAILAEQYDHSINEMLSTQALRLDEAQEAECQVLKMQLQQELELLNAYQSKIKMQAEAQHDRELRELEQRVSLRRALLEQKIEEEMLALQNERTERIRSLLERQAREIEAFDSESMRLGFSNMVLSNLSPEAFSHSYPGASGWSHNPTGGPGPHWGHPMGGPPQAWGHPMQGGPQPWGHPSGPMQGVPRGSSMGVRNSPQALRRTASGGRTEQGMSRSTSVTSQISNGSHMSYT
# Chain of MINK1 (human) (Q8N4C8 whole entry, looked up): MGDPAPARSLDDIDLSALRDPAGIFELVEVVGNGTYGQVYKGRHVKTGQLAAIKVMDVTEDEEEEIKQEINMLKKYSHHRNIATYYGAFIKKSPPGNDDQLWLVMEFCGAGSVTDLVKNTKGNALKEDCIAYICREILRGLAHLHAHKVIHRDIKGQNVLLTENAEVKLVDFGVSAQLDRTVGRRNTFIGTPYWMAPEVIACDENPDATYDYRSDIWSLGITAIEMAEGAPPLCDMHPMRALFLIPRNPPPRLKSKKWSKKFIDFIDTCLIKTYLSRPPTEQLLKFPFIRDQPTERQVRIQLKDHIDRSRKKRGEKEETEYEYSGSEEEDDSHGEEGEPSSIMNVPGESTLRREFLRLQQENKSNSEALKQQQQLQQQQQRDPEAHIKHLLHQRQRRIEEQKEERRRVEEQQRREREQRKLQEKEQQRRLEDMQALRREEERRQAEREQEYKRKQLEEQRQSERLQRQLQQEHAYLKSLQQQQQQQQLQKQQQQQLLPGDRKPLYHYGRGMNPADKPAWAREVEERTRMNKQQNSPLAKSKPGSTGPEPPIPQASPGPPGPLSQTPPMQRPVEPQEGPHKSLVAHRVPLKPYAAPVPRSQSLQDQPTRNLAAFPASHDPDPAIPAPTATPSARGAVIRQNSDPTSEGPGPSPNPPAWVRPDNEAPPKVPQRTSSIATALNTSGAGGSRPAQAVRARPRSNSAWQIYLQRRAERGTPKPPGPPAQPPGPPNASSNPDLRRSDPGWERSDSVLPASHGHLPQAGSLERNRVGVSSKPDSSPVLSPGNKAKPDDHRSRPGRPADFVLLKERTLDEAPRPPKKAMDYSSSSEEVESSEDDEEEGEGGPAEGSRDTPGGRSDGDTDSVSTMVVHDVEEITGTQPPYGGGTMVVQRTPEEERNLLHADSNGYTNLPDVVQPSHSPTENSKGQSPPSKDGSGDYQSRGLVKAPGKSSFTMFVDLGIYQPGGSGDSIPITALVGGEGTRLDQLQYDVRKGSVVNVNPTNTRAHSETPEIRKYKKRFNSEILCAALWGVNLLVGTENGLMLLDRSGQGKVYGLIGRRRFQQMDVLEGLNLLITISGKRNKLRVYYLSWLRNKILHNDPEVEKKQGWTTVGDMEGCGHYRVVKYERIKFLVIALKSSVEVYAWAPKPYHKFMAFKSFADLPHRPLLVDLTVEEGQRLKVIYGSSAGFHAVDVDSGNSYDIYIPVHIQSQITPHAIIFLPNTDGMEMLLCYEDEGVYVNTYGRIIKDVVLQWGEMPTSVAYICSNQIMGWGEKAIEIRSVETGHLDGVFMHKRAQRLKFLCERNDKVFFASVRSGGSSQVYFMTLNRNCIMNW
smiles,measurement,setting,value
O=S(=O)(NCCNC/C=C/c1ccc(Br)cc1)c1cccc2cnccc12,residual activity,NEK6 (human),100%
same,residual activity,PIM1 (human),90.1%
same,residual activity,PRKACA (human),10.5%
same,residual activity,LYN (human),101% and 126%
same,residual activity,PIM3 (human),98.3%
same,residual activity,FGFR4 (human),85.3%
same,residual activity,DSTYK (human),91.6%
same,residual activity,EPHA1 (human),83.7%
same,residual activity,PTK2B (human),85%
same,residual activity,BLK (human),82.4%
same,residual activity,MAP2K1 (human),90.5%
same,residual activity,MAPK9 (human),93.4%
same,residual activity,CDK5 CDK5R1 p25 (human),113%
same,residual activity,HIPK1 (human),91.4%
same,residual activity,EPHB3 (human),92.5%
same,residual activity,ACVRL1 (human),119%
same,residual activity,DCLK2 (human),90.1%
same,residual activity,ALK (human),101%
same,residual activity,RAF1 (human),96.4%
same,residual activity,SGK2 (human),84.2%
same,residual activity,MARK4 (human),94.3%
same,residual activity,PHKG1 (human),91.6%
same,residual activity,MAP2K2 (human),103%
same,residual activity,OXSR1 (human),95.9%
same,residual activity,TAOK1 (human),101%
same,residual activity,EPHA7 (human),109%
same,residual activity,CDK1 CCNB1 (human),93.3%
same,residual activity,PLK1 (human),98.7%
same,residual activity,EPHB4 (human),108%
same,residual activity,CAMKK2 (human),95.6%
same,residual activity,MAPK1 (human),108%
same,residual activity,GRK4 (human),95.8%
same,residual activity,CSF1R (human),97.7%
same,residual activity,MAP3K2 (human),91.5%
same,residual activity,BRSK1 (human),92%
same,residual activity,MAP3K14 (human),83.6%
same,residual activity,ITK (human),86.8%
same,residual activity,CAMKK1 (human),99.1%
same,residual activity,AKT1 (human),41.6%
same,residual activity,MINK1 (human),91.1%
same,residual activity,MAP3K11 (human),95.6%
same,residual activity,SIK2 (human),95%
O=C(O)c1ccc2c3c1cccc3c(=O)n1c3ccccc3nc21,residual activity,NEK6 (human),115%
same,residual activity,PIM1 (human),59.5%
same,residual activity,PRKACA (human),99.4%
same,residual activity,LYN (human),101% and 99.4%
same,residual activity,PIM3 (human),4.96%
same,residual activity,FGFR4 (human),88.6%
same,residual activity,DSTYK (human),103%
same,residual activity,EPHA1 (human),95.3%
same,residual activity,PTK2B (human),69.2%
same,residual activity,BLK (human),100%
same,residual activity,MAP2K1 (human),93.7%
same,residual activity,MAPK9 (human),97.5%
same,residual activity,CDK5 CDK5R1 p25 (human),80.6%
same,residual activity,HIPK1 (human),104%
same,residual activity,EPHB3 (human),94.5%
same,residual activity,ACVRL1 (human),103%
same,residual activity,DCLK2 (human),96.7%
same,residual activity,ALK (human),92.7%
same,residual activity,RAF1 (human),97.5%
same,residual activity,SGK2 (human),103%
same,residual activity,MARK4 (human),88.4%
same,residual activity,PHKG1 (human),91.5%
same,residual activity,MAP2K2 (human),105%
same,residual activity,OXSR1 (human),104%
same,residual activity,TAOK1 (human),93.3%
same,residual activity,EPHA7 (human),103%
same,residual activity,CDK1 CCNB1 (human),65%
same,residual activity,PLK1 (human),110%
same,residual activity,EPHB4 (human),90.6%
same,residual activity,CAMKK2 (human),7.88%
same,residual activity,MAPK1 (human),100%
same,residual activity,GRK4 (human),95.5%
same,residual activity,CSF1R (human),104%
same,residual activity,MAP3K2 (human),90.7%
same,residual activity,BRSK1 (human),89%
same,residual activity,MAP3K14 (human),94.8%
same,residual activity,ITK (human),97.7%
same,residual activity,CAMKK1 (human),45.8%
same,residual activity,AKT1 (human),101%
same,residual activity,MINK1 (human),79.8%
same,residual activity,MAP3K11 (human),23.7%
same,residual activity,SIK2 (human),92.8%
O=c1c2ccccc2[nH]c(=S)n1CCN1CCC(=C(c2ccc(F)cc2)c2ccc(F)cc2)CC1,residual activity,NEK6 (human),96.2%
same,residual activity,PIM1 (human),105%
same,residual activity,PRKACA (human),101%
same,residual activity,LYN (human),105% and 108%
same,residual activity,PIM3 (human),108%
same,residual activity,FGFR4 (human),105%
same,residual activity,DSTYK (human),86.5%
same,residual activity,EPHA1 (human),107%
same,residual activity,PTK2B (human),98.5%
same,residual activity,BLK (human),102%
same,residual activity,MAP2K1 (human),97.5%
same,residual activity,MAPK9 (human),97%
same,residual activity,CDK5 CDK5R1 p25 (human),93.5%
same,residual activity,HIPK1 (human),107%
same,residual activity,EPHB3 (human),92.8%
same,residual activity,ACVRL1 (human),101%
same,residual activity,DCLK2 (human),101%
same,residual activity,ALK (human),104%
same,residual activity,RAF1 (human),96.7%
same,residual activity,SGK2 (human),99.1%
same,residual activity,MARK4 (human),102%
same,residual activity,PHKG1 (human),101%
same,residual activity,MAP2K2 (human),101%
same,residual activity,OXSR1 (human),115%
same,residual activity,TAOK1 (human),101%
same,residual activity,EPHA7 (human),96.9%
same,residual activity,CDK1 CCNB1 (human),83%
same,residual activity,PLK1 (human),100%
same,residual activity,EPHB4 (human),97.1%
same,residual activity,CAMKK2 (human),100%
same,residual activity,MAPK1 (human),102%
same,residual activity,GRK4 (human),107%
same,residual activity,CSF1R (human),102%
same,residual activity,MAP3K2 (human),99.6%
same,residual activity,BRSK1 (human),98.3%
same,residual activity,MAP3K14 (human),75.7%
same,residual activity,ITK (human),97.1%
same,residual activity,CAMKK1 (human),110%
same,residual activity,AKT1 (human),98.3%
same,residual activity,MINK1 (human),94.4%
same,residual activity,MAP3K11 (human),95.2%
same,residual activity,SIK2 (human),89.7%
